Measurements reported in patent publication US8895744B2, “Alfa-carboline inhibitors of NPM-ALK, RET, and Bcr-Abl” (Universita' Degli Studi di Milano-Bicocca, priority 2008, dated 2014).

Experiments:
[1] = target: T1, Recombinant ALK kinase (Homo sapiens, UniProt Q9UM73); test: ALK kinase inhibitory activity, ELISA-based in vitro kinase assay; format: biochemical; settings: purified rALK, 0.3 mM ATP, read-out: ALK IC50
T1 construct: made in house; host or cells: Sf9 insect cells (baculovirus)
Outline: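 Sf9-expressed, purified recombinant ALK phosphorylated a plate-coated peptide substrate with 0.3 mM ATP, Mn2+/Mg2+, pH 7.5, 15 min at 30° C, after 10 min inhibitor preincubation. Phosphotyrosine was detected by anti-pTyr ELISA (TMB, A450); IC50 in μM is the concentration giving 50% inhibition relative to control.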

[2] = target: T2, Recombinant Abl T315I protein (Homo sapiens, UniProt P00519, T315I); test: Abl T315I mutant kinase inhibitory activity, ELISA-based in vitro kinase assay; format: biochemical; settings: purified Abl T315I, 0.3 mM ATP
T2 construct: made in house; host or cells: Sf9 cells (baculovirus)
Outline: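 His-tagged human Abl T315I from Sf9 cells, preincubated 10 min at room temperature with inhibitor, then reacted on peptide-coated plates with 0.3 mM ATP, 1 mM MnCl2, 5 mM MgCl2 in 50 mM Tris pH 7.5. Phosphotyrosine detected by anti-pTyr/HRP ELISA at 450 nm; IC50 as 50% inhibition vs control.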

[3] = target: T3, Recombinant Ret protein (Homo sapiens, UniProt P07949); test: RET kinase inhibitory activity, ELISA-based in vitro kinase assay; format: biochemical; settings: purified Ret, 0.3 mM ATP
T3 construct: made in house; host or cells: Sf9 cells (baculovirus)

[4] = tested on: parent untransformed BaF3 cells; test: Tritiated thymidine uptake cell proliferation assay, parental BaF3 (control); format: cell-based; settings: Mus musculus, 3[H]-thymidine uptake, 72 h, medium with IL-3, read-out: BaF parental IC50
Outline: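 Control lines were parental BaF3 in IL-3-supplemented medium and ALK-, Abl- or RET-negative U937, seeded at 10 000 cells/well with serial inhibitor dilutions for 72 h at 37 °C. ³H-thymidine (1 μCi/well) was added for the final 16 h; IC50 (μM) is the concentration halving uptake versus DMSO.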

[5] = target: T4, BaF3 cells transformed with the oncogenic fusion protein NPM/ALK (Homo sapiens, UniProt Q9UM73); test: Tritiated thymidine uptake cell proliferation assay, BaF3 NPM/ALK; format: cell-based; settings: 3[H]-thymidine uptake, 72 h; read-out: BaF NPM/ALK IC50
T4 construct: fused on or other part: P06748 (Nucleophosmin)
Outline: (§1)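 Cells were seeded at 10 000/well with serial inhibitor dilutions or DMSO vehicle and incubated 72 h at 37 °C, with ^3[H]-thymidine (1 μCi/well) added for the final 16 h. Incorporation was read by β scintillation counting. IC50 (μM) is the concentration giving a 50% decrease in uptake versus controls.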

[6] = target: BaF3 cells transformed with the oncogenic fusion protein bcr-abl (Homo sapiens, UniProt P00519); test: Tritiated thymidine uptake cell proliferation assay, BaF3 BCR/ABL; format: cell-based; settings: 3[H]-thymidine uptake, 72 h; read-out: BaF BCR/ABL IC50
Description: (§2) Inhibition of the Proliferation of Bcr/Abl Positive Cells
(§3) Method: Tritiated Thymidine Uptake Cell Proliferation Assay
(§4) The following procedure was used with parent untransformed BaF3 cells, BaF3 cells transformed with the oncogenic fusion protein bcr-abl, Abl-negative U937 cells, or Bcr-abl positive LAMA-84 cells. The parent untransformed BaF3 cells and Abl-negative U937 cells are used as controls. Cells were seeded in U-bottomed 96-well plates at 10 000 cells/well in a volume of 100 μL in supplemented medium. In the case of the parent untransformed BaF3 cells, the medium was supplemented with IL-3. Serial dilutions of inhibitors were added to the appropriate wells and volumes adjusted to 200 μL. Controls were treated with the equivalent volume of vehicle, DMSO, alone. Plates were incubated at 37° C. for 72 h. ^3[H]-thymidine (1 μCi/well) was added for the last 16 h of incubation. Cells were harvested on to paper filters and ^3[H]-thymidine incorporation was measured using a β scintillation counter (1430 MicroBeta, Wallac, Turku, Finland). The 50% inhibitory concentration (IC50) was defined as the concentration of inhibitor, expressed in micromolar, that gave a 50% decrease in ^3H-thymidine uptake compared with controls.

[7] = target: T5, BaF3 cells transformed with the oncogenic fusion protein RET-PTC2 (Homo sapiens, UniProt P07949); test: Tritiated thymidine uptake cell proliferation assay, BaF3 RET/PTC; format: cell-based; settings: 3[H]-thymidine uptake, 72 h; read-out: BaF RET/PTC IC50
T5 construct: fused on or other part: P10644 (cAMP-dependent protein kinase type I-alpha regulatory subunit)
Description: Inhibition of the Proliferation of RET-positive Cells
as §3
as §4, with “RET-PTC2,” for “bcr-abl, Abl-negative U937 cells,”, “RET-negative 11937” for “Bcr-abl positive LAMA-84”, “RET-negative” for “Abl-negative”, “^3[H]-thymidine” for “^3H-thymidine”

[8] = tested on: NPM/ALK positive KARPAS-299 cells; test: Tritiated thymidine uptake cell proliferation assay, KARPAS-299; format: cell-based; settings: 3[H]-thymidine uptake, 72 h, read-out: K299 (NPM/ALK+) IC50
Description: Inhibition of the proliferation of NPM/ALK positive cells
as §3
as §4, with “NPM/ALK, NPM/ALK positive SUDHL-1 cells, ALK-negative” for “bcr-abl, Abl-negative”, “NPM/ALK” for “or Bcr-abl”, “KARPAS-299” for “LAMA-84”, “Alk-negative” for “Abl-negative”, “^3[H]-thymidine” for “^3H-thymidine”

[9] = tested on: NPM/ALK positive SUDHL-1 cells; test: Tritiated thymidine uptake cell proliferation assay, SUDHL-1; format: cell-based; settings: 3[H]-thymidine uptake, 72 h
Outline: as §1

[10] = tested on: Bcr-abl positive LAMA-84 cells; test: Tritiated thymidine uptake cell proliferation assay, LAMA-84; format: cell-based; settings: Homo sapiens, 3[H]-thymidine uptake, 72 h
Description: as §2, §3, §4

T3 sequence (P07949 29-1114): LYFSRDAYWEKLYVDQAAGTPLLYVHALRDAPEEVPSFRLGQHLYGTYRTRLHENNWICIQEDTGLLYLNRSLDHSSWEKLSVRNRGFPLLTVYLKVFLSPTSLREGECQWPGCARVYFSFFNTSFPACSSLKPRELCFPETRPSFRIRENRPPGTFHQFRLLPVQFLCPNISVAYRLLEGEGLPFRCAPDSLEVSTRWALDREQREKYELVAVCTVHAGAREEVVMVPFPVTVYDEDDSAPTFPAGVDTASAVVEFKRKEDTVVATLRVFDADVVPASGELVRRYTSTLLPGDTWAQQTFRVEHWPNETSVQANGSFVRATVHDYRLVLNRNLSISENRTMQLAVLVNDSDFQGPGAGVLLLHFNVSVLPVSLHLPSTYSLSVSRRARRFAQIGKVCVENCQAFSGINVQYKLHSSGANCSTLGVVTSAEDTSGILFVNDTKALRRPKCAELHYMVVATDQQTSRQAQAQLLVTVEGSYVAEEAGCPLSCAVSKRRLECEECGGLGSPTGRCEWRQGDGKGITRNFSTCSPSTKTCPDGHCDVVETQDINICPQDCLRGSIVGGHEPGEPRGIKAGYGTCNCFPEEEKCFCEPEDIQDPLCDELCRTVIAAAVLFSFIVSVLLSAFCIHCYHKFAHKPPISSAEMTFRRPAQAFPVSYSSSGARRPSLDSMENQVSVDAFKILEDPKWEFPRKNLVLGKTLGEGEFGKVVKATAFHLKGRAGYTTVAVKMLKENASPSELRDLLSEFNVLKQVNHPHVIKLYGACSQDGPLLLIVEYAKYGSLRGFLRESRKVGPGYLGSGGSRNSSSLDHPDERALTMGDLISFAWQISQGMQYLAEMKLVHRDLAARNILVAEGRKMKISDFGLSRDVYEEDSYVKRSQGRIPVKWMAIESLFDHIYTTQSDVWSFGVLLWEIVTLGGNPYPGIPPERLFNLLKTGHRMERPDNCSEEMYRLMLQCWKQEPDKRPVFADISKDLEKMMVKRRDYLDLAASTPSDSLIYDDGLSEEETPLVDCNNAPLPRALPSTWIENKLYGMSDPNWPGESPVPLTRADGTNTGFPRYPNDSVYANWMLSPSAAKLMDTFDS
T4 sequence (Q9UM73 whole entry, change not shown, the tested form may be a part): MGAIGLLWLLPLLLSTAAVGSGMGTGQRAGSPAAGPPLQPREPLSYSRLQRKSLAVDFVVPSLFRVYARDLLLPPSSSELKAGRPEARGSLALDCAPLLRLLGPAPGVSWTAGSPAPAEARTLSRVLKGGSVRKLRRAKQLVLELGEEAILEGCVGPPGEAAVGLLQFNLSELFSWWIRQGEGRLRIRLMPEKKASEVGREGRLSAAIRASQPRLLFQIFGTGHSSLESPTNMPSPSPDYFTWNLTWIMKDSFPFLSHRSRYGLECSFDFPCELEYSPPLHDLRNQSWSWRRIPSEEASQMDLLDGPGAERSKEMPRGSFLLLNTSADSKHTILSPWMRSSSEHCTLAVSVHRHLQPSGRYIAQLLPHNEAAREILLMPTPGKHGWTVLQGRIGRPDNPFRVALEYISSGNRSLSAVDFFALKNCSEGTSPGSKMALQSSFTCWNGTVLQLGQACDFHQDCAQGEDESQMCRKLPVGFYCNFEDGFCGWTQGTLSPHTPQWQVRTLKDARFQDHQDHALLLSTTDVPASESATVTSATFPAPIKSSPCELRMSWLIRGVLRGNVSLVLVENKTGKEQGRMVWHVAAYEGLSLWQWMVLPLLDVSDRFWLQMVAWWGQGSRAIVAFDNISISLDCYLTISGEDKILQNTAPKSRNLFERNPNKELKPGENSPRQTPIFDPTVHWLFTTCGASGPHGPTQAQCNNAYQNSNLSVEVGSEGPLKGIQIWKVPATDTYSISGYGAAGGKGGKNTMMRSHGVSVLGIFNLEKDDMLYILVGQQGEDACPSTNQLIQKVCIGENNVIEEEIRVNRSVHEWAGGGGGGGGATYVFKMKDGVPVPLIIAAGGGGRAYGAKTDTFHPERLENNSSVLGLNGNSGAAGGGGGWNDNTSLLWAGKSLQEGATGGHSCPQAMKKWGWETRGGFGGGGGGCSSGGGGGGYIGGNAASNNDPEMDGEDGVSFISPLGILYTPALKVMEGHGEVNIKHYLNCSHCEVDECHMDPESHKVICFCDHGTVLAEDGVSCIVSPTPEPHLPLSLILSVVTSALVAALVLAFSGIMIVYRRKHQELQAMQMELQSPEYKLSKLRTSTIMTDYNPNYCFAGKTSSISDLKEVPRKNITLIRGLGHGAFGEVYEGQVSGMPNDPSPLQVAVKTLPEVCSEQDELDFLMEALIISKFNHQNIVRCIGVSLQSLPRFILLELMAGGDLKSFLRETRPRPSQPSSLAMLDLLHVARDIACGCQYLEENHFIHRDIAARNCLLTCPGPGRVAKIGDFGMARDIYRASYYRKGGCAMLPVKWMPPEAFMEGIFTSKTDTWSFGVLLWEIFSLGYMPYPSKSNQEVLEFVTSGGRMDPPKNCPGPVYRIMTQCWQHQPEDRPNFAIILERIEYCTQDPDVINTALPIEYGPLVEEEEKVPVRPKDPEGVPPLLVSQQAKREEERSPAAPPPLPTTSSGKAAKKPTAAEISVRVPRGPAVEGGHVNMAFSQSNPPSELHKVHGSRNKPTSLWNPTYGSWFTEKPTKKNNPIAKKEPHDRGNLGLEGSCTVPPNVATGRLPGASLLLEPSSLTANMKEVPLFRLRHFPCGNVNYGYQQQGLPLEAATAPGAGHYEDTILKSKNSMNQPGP
T1 sequence (Q9UM73 19-1620): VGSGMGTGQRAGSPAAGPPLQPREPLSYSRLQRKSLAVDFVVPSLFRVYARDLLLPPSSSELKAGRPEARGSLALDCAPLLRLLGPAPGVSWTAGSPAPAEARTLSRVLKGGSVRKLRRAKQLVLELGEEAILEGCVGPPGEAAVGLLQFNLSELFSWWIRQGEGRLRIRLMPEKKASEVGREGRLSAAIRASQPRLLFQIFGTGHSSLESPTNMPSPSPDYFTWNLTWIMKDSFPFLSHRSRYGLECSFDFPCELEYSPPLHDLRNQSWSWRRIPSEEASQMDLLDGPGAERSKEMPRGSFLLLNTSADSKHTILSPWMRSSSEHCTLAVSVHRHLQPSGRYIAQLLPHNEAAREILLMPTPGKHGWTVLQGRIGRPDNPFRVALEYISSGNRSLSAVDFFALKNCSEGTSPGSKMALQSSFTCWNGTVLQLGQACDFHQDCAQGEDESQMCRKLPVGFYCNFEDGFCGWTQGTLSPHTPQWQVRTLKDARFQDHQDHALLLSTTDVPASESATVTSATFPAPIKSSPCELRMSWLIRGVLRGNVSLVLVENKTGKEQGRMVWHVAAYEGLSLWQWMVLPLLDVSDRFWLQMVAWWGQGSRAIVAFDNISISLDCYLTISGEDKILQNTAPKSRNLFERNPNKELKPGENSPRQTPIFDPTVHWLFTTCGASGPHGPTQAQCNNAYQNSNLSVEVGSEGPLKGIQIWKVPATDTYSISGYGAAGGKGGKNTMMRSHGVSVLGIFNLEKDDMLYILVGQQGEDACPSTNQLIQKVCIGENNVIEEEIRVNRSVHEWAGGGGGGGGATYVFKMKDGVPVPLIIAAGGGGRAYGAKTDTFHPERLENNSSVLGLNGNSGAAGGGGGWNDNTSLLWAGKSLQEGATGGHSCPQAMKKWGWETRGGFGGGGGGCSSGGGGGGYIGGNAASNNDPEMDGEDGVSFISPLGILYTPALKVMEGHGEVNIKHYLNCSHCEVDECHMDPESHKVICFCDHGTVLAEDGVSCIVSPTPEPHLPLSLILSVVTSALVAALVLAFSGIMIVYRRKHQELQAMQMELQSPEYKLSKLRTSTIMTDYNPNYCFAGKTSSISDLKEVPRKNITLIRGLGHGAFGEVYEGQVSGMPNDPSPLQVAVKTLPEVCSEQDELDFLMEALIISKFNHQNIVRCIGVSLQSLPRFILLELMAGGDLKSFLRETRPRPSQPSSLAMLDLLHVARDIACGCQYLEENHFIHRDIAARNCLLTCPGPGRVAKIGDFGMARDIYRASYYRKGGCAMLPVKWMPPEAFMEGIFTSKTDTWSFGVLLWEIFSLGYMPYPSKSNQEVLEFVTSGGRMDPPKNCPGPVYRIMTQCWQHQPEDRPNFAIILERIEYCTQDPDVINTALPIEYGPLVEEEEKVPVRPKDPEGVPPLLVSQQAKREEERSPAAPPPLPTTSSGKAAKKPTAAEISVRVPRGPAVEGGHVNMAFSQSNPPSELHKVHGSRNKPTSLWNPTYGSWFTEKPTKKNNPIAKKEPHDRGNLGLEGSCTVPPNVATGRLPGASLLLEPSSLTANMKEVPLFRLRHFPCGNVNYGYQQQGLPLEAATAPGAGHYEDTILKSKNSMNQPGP

Row | Structure (SMILES) | IC50 [1] [µM] | IC50 [2] [µM] | IC50 [3] [µM] | GI50 [5] [µM] | GI50 [6] [µM] | GI50 [7] [µM] | IC50 [8] [µM] | IC50 [9] [µM] | IC50 [4] [µM] | IC50 [10] [µM]
1 | O=C(CBr)c1ccc2[nH]c3ncccc3c2c1 [R228] |  | 13 ± 4.6 | 16 | 8 | 18 | 11 |  |  | 13 | 
2 | COc1ccc(CNC(=O)CCC(=O)c2ccc3[nH]c4ncc(Cl)cc4c3c2)cc1 [R304, 4-(3-Chloro-9H-pyrido[2,3-b]indol-6-yl)-N-(4-methoxybenzyl)-4-oxobutyramide] |  | 5 |  | 2.6 ± 1 |  |  |  | 8.4 | 19 ± 7 | 1.6
3 | O=C(CSc1ccccc1)c1ccc2[nH]c3nc(Cl)ccc3c2c1 [R306, 1-(2-Chloro-9H-pyrido[2,3-b]indol-6-yl)-2-phenylsulfanylethanone] | 0.8 ± 0.3 | 3.5 ± 0.03 | 1.3 | 7.3 ± 0.3 |  |  |  | 5.7 | 25 ± 3 | 1.4
4 | C(=C\c1cnc2[nH]c3ccc(-c4ccc(CN5CCOCC5)cc4)cc3c2c1)/c1ccccc1 [R314, 6-(4-(morpholin-4-yl)methylphenyl)-3-(2′-phenylethenyl)-9H-pyrido[2,3-b]indole] |  | > 50 |  | 1.6 ± 0.1 |  |  |  | 2.1 |  | 2.1

Now from value to molecule, other results behind:

Row | IC50 [1] [µM] | IC50 [2] [µM] | IC50 [3] [µM] | GI50 [5] [µM] | GI50 [6] [µM] | GI50 [7] [µM] | IC50 [8] [µM] | IC50 [9] [µM] | Structure (SMILES) | IC50 [4] [µM] | IC50 [10] [µM]
5 | 88 ± 4.3 | > 100 | 8.8 ± 1.6 | 1.5 | 2.5 | 1.6 |  |  | CN1CCN(Cc2ccc(C(=O)Nc3nc(-c4ccc5[nH]c6ncccc6c5c4)cs3)cc2)CC1 [R222] | 1.5 | 
6 | 1.7 ± 0.4 |  |  | > 20 | > 20 |  | > 20 |  | Clc1cnc2[nH]c3ccc(Br)cc3c2c1 [R252, 6-bromo-3-chloro-9H-pyrido[2,3-b]indole] | > 20 | 
7 |  | 8.3 |  | 15 ± 3 |  |  |  | 32 | COc1ccc(-c2ccc3[nH]c4nc(-c5ccc(OC)cc5)ccc4c3c2)cc1 [R311, 2,6-di(4-methoxyphenyl)-9H-pyrido[2,3-b]indole] | > 100 | 55
